The source of these data is the Deep4Chem optical property database.

This data set in a line: solvent given as SMILES.

The compound `COc1ccc(-c2cnc(-c3ccccc3)o2)cc1OC` displayed an absorption maximum (in ClCCl) of 322 nm.

`COc1cc2cc(/C=C/c3ccc(/C=C(\C#N)C(=O)O)cc3)c(=O)oc2cc1OC` came in with an absorption maximum (in CC#N) of 400 nm.

With `COC(=O)c1cc(=O)n(C)c2cc(-c3ccccc3N(C)C)sc12`, the absorption maximum is, setting by setting: (in CC#N) 402 nm; (in ClCCl) 406 nm.

`N#Cc1c(-n2c3ccc(Cl)cc3c3cc(Cl)ccc32)c(C#N)c(-n2c3ccc(Cl)cc3c3cc(Cl)ccc32)c(-n2c3ccc(Cl)cc3c3cc(Cl)ccc32)c1-n1c2ccc(Cl)cc2c2cc(Cl)ccc21` returned an absorption maximum (in Cc1ccccc1) of 384 nm.

As for `COC(=O)C1CCN(c2ccc3c(N4CCCCC4)c4ccc(=[N+]5CCC(C(=O)OC)CC5)cc-4oc3c2)CC1` (configuration not stated), under “in ClCCl”, the absorption maximum was 482 nm.

Where the note is “in ClCCl”, `Cc1nnc(-c2cc(-n3c4ccccc4c4ccccc43)c(-n3c4ccccc4c4ccccc43)cc2-c2nnc(C)o2)o1` came in with an absorption maximum of 353 nm.

`C1=Cc2ccccc2C(=Cc2ccc(C=C3c4ccccc4-c4ccccc43)cc2)c2ccccc21` showed an absorption maximum (in C1CCOC1) of 360 nm.

The compound `CN1C(=CC2=C([O-])C(=Cc3oc4ccccc4[n+]3C)C2=O)C(C)(C)c2ccccc21` came in with an absorption maximum (in ClC(Cl)Cl) of 608 nm.

Take `O=C1CC(=O)Nc2cc(C(=O)O)ccc2N1`: the absorption maximum (in CS(C)=O) is recorded as 304 nm.

With `FC(F)(F)c1ccccc1B1c2ccccc2Nc2ccccc21`, the absorption maximum (in ClCCl) amounted to 386 nm.

Turning to `CCC1=C(C)C2=C(c3ccc(-c4c5ccccc5c(-c5ccccc5)c5ccccc45)cc3)c3c(C)c(CC)c(C)n3[B-](F)(F)[N+]2=C1C`, the absorption maximum runs as follows: (in CC#N) 523 nm; (in CCCCCC) 526 nm; (in CCO) 525 nm; (in CN(C)C=O) 526 nm; (in Cc1ccccc1) 529 nm; (in ClCCl) 527 nm.

`CC(C)c1ccc(/C=C/c2nc3ccc(N(C)C)cc3s2)cc1`: the absorption maximum reads like this: (in C1CCCCC1) 388 nm; (in CC#N) 392 nm.

In the case of `CC1=C2C=CC(C)=[N+]2[B-](F)(F)n2cccc21`, the absorption maximum is reported as 499 nm (in CCCCCC), 494 nm (in CO) and 498 nm (in ClCCl).

`CC1=C[C@]2(C)C(=C3C(=C4C(C)=C(c5ccc(-c6nc(-c7ccccc7)c(-c7ccccc7)[nH]6)cc5)S[C@]42C)C(F)(F)C(F)(F)C3(F)F)S1`: the absorption maximum (in C1CCOC1) is recorded as 505 nm.

`CCCCN1C(=O)c2ccc3c4c(Br)cc5c6c(ccc(c7c(Br)cc(c2c37)C1=O)c64)C(=O)N(CCCC)C5=O` yielded an absorption maximum (in ClC(Cl)Cl) of 524 nm.

`COc1ccc(N(c2ccc(OC)cc2)c2cc(N(c3ccc(OC)cc3)c3ccc(OC)cc3)c3ccc4cc(C(C)(C)C)cc5ccc2c3c54)cc1`: the absorption maximum (in ClCCl) was determined as 434 nm.

`F[B-]1(F)n2c(c3ccccc3c2-c2ccccc2)N=C2c3ccccc3C(c3ccccc3)=[N+]21`: the absorption maximum (in ClCCl) is on record as 712 nm.

In the case of `O=S1(=O)C2=C(c3ccc(-c4ccc(N(c5ccccc5)c5ccccc5)cc4)cc31)C1(C3=C(c4ccccc41)S(=O)(=O)c1cc(-c4ccc(N(c5ccccc5)c5ccccc5)cc4)ccc13)c1ccccc12`, the absorption maximum by setting is: (in C1CCOC1) 431 nm; (in CC#N) 430 nm; (in CCCCCC) 424 nm; (in Cc1ccccc1) 438 nm; (in ClCCl) 438 nm.

As to `C=CC(=O)Oc1ccc2cc(C=C)c(=O)oc2c1`, under “in CC#N”, the absorption maximum was found to be 320 nm.

In the case of `CCOC(=O)CN(CC(=O)OCC)c1ccc(-c2cc(-c3cccnc3)nc(-c3cccnc3)c2)cc1`, the absorption maximum (in CC#N) is given as 328 nm; the absorption maximum (in CCOC(C)=O) is 328 nm; the absorption maximum (in CN(C)C=O) is 334 nm; the absorption maximum (in CS(C)=O) turned out to be 338 nm; the absorption maximum (in c1ccccc1) is listed as 328 nm.

For the compound `N#CC1=CC(/C=C/c2ccccc2)=CC(C#N)=P1(c1ccccc1)c1ccccc1`, for the setting “in ClC(Cl)Cl”, the absorption maximum came out at 506 nm.

For `COc1ccc2c(c1)c1cc(OC)ccc1n2-c1ccc(S(=O)(=O)c2ccc(-n3c4ccc(OC)cc4c4cc(OC)ccc43)cc2)cc1`, under “in Cc1ccccc1”, the absorption maximum was 369.69 nm.

`Oc1cc(-c2cccs2)ccc1-c1nc2ccccc2s1`: the absorption maximum (in ClCCl) stood at 364 nm.

Regarding `COc1ccc2nc(/N=N/c3ccc(N(C)C)cc3)sc2c1`, the absorption maximum is 506 nm (in CC#N) and 506 nm (in ClCCl).

The compound `CCn1c(-c2ccc(-c3cccc4ccccc34)cc2)c(-c2ccc3ccccc3c2)c(-c2ccc3ccccc3c2)c1-c1ccc(-c2cccc3ccccc23)cc1` had an absorption maximum (in CCOC(C)=O) of 292 nm.

Regarding `O=C1c2ccccc2C(=O)N1c1ccc(Cn2cncn2)cc1`, the absorption maximum reads like this: (in C1CCOC1) 293 nm; (in C1COCCO1) 284 nm; (in CC#N) 315 nm; (in CC(C)=O) 304 nm; (in CC(C)O) 306 nm; (in CCCCCC) 278 nm. Besides, the absorption maximum is 302 nm (in CCCCO); 308 nm (in CCO); 290 nm (in CCOC(C)=O); 289 nm (in CCOCC); 314 nm (in CN(C)C=O); 312 nm (in CO). For the same compound, the absorption maximum is 320 nm (in CS(C)=O), 283 nm (in Cc1ccccc1) and 294 nm (in ClCCl).

In turn, `Nc1ncc2nc[nH]c2n1` gave an absorption maximum (in O) of 290 nm.

On to `N#Cc1c(N2CCCCC2)cc(-c2ccc3ccc4cccc5ccc2c3c45)c2c1Cc1ccccc1-2`, for which the absorption maximum (in C1CCOC1) was determined as 344 nm.

Turning to `Cc1cc(C)c(C2=C3C=C(c4ccc(C(C)(C)C)cc4)C(c4ccc(C(C)(C)C)cc4)=[N+]3[B-](F)(F)n3c2cc(-c2ccc(C(C)(C)C)cc2)c3-c2ccc(C(C)(C)C)cc2)c(C)c1`, the absorption maximum reads like this: (in C1CCCCC1) 602 nm; (in C1CCOC1) 602 nm; (in CC#N) 592 nm; (in Cc1ccccc1) 606 nm; (in ClCCl) 599 nm.

Take `COc1ccc2nc(N)sc2c1`: the absorption maximum reads like this: (in CC#N) 305 nm; (in ClCCl) 305 nm.

Regarding `N#C/C(=C\c1ccncc1)c1nc(-c2ccccc2)cs1`, the absorption maximum (in CC#N) came out at 361 nm; the absorption maximum (in CCO) amounted to 370 nm; the absorption maximum (in CN(C)C=O) worked out at 368 nm; the absorption maximum (in CS(C)=O) came to 371 nm; the absorption maximum (in Cc1ccccc1) is 372 nm; the absorption maximum (in ClCCl) is reported as 418 nm.

With `Clc1ccc2cc3cccc[n+]3cc2c1`, the absorption maximum (in O) is given as 400 nm.

For the compound `c1ccc(-c2ccc(-c3ccc(N(c4ccccc4)c4ccccc4)cc3)c3nsnc23)cc1`, the absorption maximum reads like this: (in C1CCOC1) 437 nm; (in CC(C)=O) 424 nm; (in CCCCCC) 438 nm; (in CCOCC) 435 nm.

For the compound `Cc1cc(C)c(B(c2c(C)cc(C)cc2C)c2cc3cccc4c(B(c5c(C)cc(C)cc5C)c5c(C)cc(C)cc5C)cc5cccc2c5c34)c(C)c1`, the absorption maximum (in CCCCCC) was found to be 392 nm.

The compound `COC(=O)C1=C(C(=O)OC)C2(c3ccccc3-c3c(C(=O)OC)cccc32)[C@@H](c2ccc(Cl)cc2)C=C2c3cc(OC)c(OC)cc3CCN21` (some centres not stated) showed an absorption maximum (in ClCCl) of 311 nm.

Regarding `Nc1nc2ccc([N+](=O)[O-])cc2s1`, the absorption maximum runs as follows: (in CC#N) 355 nm; (in ClCCl) 346 nm.
